The values below are quoted from earlier work in patent US20250275917A1, “TOPICAL FOAMABLE PHARMACEUTICAL COMPOSITION” (EUROFARMA LABORATORIOS S.A., priority 2021, published 2025).

The conditions of the data set: systemic absorption.

Take `Nc1cc(N2CCCCC2)nc(N)[n+]1[O-]` [Minoxidil]: the “concentration associated with adverse effects” value was 20 ng/mL.
